Data taken from patent US8846739B2, “TGR5 agonists” (Exelixis Patent Company LLC, priority 2009, dated 2014).

Tests used:
h-TGR5 = target: T1, h-TGR5 (Homo sapiens, UniProt Q8TDU6); assay: TGR5 cAMP Assay using Cisbio cAMP Dynamic 2 htrf assay kit; assay type: cell-based; details: hTGR5CRE-luc HEK 293 cells
T1 sequence (Q8TDU6 1-330): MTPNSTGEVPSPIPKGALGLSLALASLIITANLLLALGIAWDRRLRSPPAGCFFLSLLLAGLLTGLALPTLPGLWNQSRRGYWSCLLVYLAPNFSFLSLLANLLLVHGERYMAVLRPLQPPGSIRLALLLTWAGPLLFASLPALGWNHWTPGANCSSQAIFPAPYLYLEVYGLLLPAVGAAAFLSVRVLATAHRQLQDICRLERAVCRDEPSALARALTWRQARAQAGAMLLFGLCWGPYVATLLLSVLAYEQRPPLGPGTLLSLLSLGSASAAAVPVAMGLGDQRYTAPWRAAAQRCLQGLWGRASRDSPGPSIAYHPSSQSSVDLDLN

human TGR5 (h-TGR5) = target: T2, human TGR5 (h-TGR5) (Homo sapiens, UniProt Q8TDU6); assay: TGR5/CRE-Luciferase Assay; assay type: cell-based; details: HEK 293 hTGR5/CRE-Luc cells, 6 hours incubation, read-out: CRE-Luc Agonist (EC50)
T2 sequence (Q8TDU6 1-330): T1 sequence (Q8TDU6 1-330)
In short: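 HEK 293 CRE-Luciferase cells stably expressing the receptor, plated in DMEM 18-20 h before assay, then exposed to serially diluted compounds (DMEM with 5% DMSO) for 6 h. Luciferase read-out after lysis; EC50 from dose-response.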

SMILES | EC50 (h-TGR5) [nM] | EC50 (human TGR5 (h-TGR5)) [nM]
COc1cc(C(C)(C)c2cnc(SCc3c(F)cc(S(=O)(=O)N(CCC[N+](C)(C)C)[C@@H](C)C(=O)O)cc3F)n2-c2ccc(F)cc2)ccc1Cl [Compound 14b, (S)-3-(N-(1-carboxyethyl)-4-((5-(2-(4-chloro-3-methoxyphenyl)propan-2-yl)-1-(4-fluorophenyl)-1H-imidazol-2-ylthio)methyl)-3,5-difluorophenylsulfonamido)-N,N,N-trimethylpropan-1-aminium 2,2,2-trifluoroacetate] | < 100 | < 100
COc1cc(C(C)(C)c2cnc(SCc3c(F)cc(S(=O)(=O)N(CCC[N+](C)(C)C)[C@H](C)C(=O)O)cc3Cl)n2-c2ccc(F)cc2)cc(F)c1F [Compound 14c, (R)-3-(N-(1-carboxyethyl)-3-chloro-4-((5-(2-(3,4-difluoro-5-methoxyphenyl)propan-2-yl)-1-(4-fluorophenyl)-1H-imidazol-2-ylthio)methyl)-5-fluorophenylsulfonamido)-N,N,N-trimethylpropan-1-aminium 2,2,2-trifluoroacetate] | < 100 | < 100
COc1cc(C(C)(C)c2cnc(SCc3c(F)cc(S(=O)(=O)N(C)[C@@H](CCC[N+](C)(C)C)C(=O)O)cc3F)n2-c2ccc(F)cc2)ccc1F [Compound 14e, (S)-4-carboxy-4-(3,5-difluoro-4-((5-(2-(4-luoro-3-methoxyphenyl)propan-2-yl)-1-(4-fluorophenyl)-1H-imidazol-2-ylthio)methyl)-N-methylphenylsulfonamido)-N,N,N-trimethylbutan-1-aminium chloride] | < 100 | < 100
COc1cc(C(C)(C)c2cnc(SCc3c(F)cc(S(=O)(=O)N(C)[C@@H](CCC[N+](C)(C)C)C(=O)O)cc3F)n2-c2ccc(F)cc2)cc(F)c1F [Compound 14f, (S)-4-carboxy-4-(4-((5-(2-(3,4-difluoro-5-methoxyphenyl)propan-2-yl)-1-(4-fluorophenyl)-1H-imidazol-2-ylthio)methyl)-3,5-difluoro-N-methylphenylsulfonamido)-N,N-trimethylbutan-1-aminium chloride] | < 100 | < 100
COc1ccc(C(C)(C)c2cnc(SCc3c(F)cc(S(=O)(=O)N(C)[C@@H](CCC[N+](C)(C)C)C(=O)O)cc3F)n2-c2ccc(F)cc2)cc1Cl [Compound 14g, (S)-4-carboxy-4-(4-((5-(2-(3-chloro-4-methoxyphenyl)propan-2-yl)-1-(4-fluorophenyl)-1H-imidazol-2-ylthio)methyl)-3,5-difluoro-N-methylphenylsulfonamido)-N,N,N-trimethylbutan-1-aminium chloride] | < 100 | < 100
CN([C@@H](CCC[N+](C)(C)C)C(=O)O)S(=O)(=O)c1cc(F)c(CSc2ncc(C(C)(C)c3ccc(F)c(Cl)c3)n2-c2ccc(F)cc2)c(F)c1 [Compound 14h, (S)-4-carboxy-4-(4-((5-(2-(3-chloro-4-fluorophenyl)propan-2-yl)-1-(4-fluorophenyl)-1H-imidazol-2-ylthio)methyl)-3,5-difluoro-N-methylphenylsulfonamido)-N,N,N-trimethylbutan-1-aminium chloride] | < 100 | < 100
COc1cc(C(C)(C)c2cnc(CCc3c(F)cc(S(=O)(=O)N(C)[C@@H](CCC[N+](C)(C)C)C(=O)O)cc3F)n2-c2ccc(F)cc2)ccc1Cl [Compound 14i, (S)-4-carboxy-4-(4-(2-(5-(2-(4-chloro-3-methoxyphenyl)propan-2-yl)-1-(4-fluorophenyl)-1H-imidazol-2-yl)ethyl)-3,5-difluoro-N-methylphenylsulfonamido)-N,N,N-trimethylbutan-1-aminium chloride] | < 100 | < 100
